Laboratory results from patent publication US9346811B2, “6,7-dihydro-pyrazolo[1,5-a]pyrazin-4-ylamine derivatives useful as inhibitors of beta-secretase (BACE)” (JANSSEN PHARMACEUTICA NV, priority 2011, dated 2016).
Structures can show the parent of a compound that is named as a salt.

Assays:
[1] = molecular target: recombinant BACE1 protein (Homo sapiens, UniProt P56817); test: Biochemical FRET based assay; details: recombinant BACE1 1 μg/ml, 120 min, pH 5.0; for IC50: read-out: Biochemical FRET based assay pIC50 (converted)
Source text: Biochemical FRET Based Assay
This assay is a Fluorescence Resonance Energy Transfer Assay (FRET) based assay. The substrate for this assay is an APP derived 13 amino acids peptide that contains the ‘Swedish’ Lys-Met/Asn-Leu mutation of the amyloid precursor protein (APP) β-secretase cleavage site. This substrate also contains two fluorophores: (7-methoxycoumarin-4-yl)acetic acid (Mca) is a fluorescent donor with excitation wavelength at 320 nm and emission at 405 nm and 2,4-Dinitrophenyl (Dnp) is a proprietary quencher acceptor. […] Upon cleavage by BACE1, the fluorophore Mca is separated from the quenching group Dnp, restoring the full fluorescence yield of the donor. The increase in fluorescence is linearly related to the rate of proteolysis (Koike H et al. J. Biochem. 1999, 126, 235-242). Briefly in a 384-well format recombinant BACE1 protein in a final concentration of 1 μg/ml is incubated for 120 min at room temperature with 10 μm substrate in incubation buffer (40 mM Citrate buffer pH 5.0, 0.04% PEG, 4% DMSO) in the absence or presence of compound. Next the amount of proteolysis is directly measured by fluorescence measurement at T=0 and T=120 (excitation at 320 nm and emission at 405 nm).

[2] = system: Aβ42 produced and secreted into the medium of human neuroblastoma SKNBE2 cells; test: Cellular αlisa assay in SKNBE2 cells, Aβ42; format: cell-based; details: SKNBE2 cells expressing hAPP695, 18 hours incubation; for IC50: Homo sapiens, SKNBE2, 18 h, read-out: Cellular αlisa assay in SKNBE2 cells Aβ42 pIC50 (converted)
Procedure: (§1) Cellular αlisa Assay in SKNBE2 Cells
(§2) In two αlisa assays the levels of Aβtotal and Aβ42 produced and secreted into the medium of human neuroblastoma SKNBE2 cells are quantified. The assay is based on the human neuroblastoma SKNBE2 expressing the wild type Amyloid Precursor Protein (hAPP695). The compounds are diluted and added to these cells, incubated for 18 hours and then measurements of Aβ42 and Aβtotal are taken. Aβtotal and Aβ42 are measured by sandwich αlisa. αlisa is a sandwich assay using biotinylated antibody AbN/25 attached to streptavidin coated beads and antibody Ab4G8 or cAb42/26 conjugated acceptor beads for the detection of Aβtotal and Aβ42 respectively. In the presence of Aβtotal or Aβ42, the beads come into close proximity. The excitation of the Donor beads provokes the release of singlet oxygen molecules that triggers a cascade of energy transfer in the Acceptor beads, resulting in light emission. Light emission is measured after 1 hour incubation (excitation at […] and emission at 615 nm).
(§3) A best-fit curve is fitted by a minimum sum of squares method to the plot of % Controlmin versus compound concentration.

[3] = system: Aβtotal produced and secreted into the medium of human neuroblastoma SKNBE2 cells; test: Cellular αlisa assay in SKNBE2 cells, Aβtotal; format: cell-based; details: SKNBE2 cells expressing hAPP695, 18 hours incubation; for IC50: Homo sapiens, SKNBE2, 18 h, read-out: Cellular αlisa assay in SKNBE2 cells Aβtotal pIC50 (converted)
Procedure: as §1, §2, §3

Sequence of recombinant BACE1 protein (P56817 46-501): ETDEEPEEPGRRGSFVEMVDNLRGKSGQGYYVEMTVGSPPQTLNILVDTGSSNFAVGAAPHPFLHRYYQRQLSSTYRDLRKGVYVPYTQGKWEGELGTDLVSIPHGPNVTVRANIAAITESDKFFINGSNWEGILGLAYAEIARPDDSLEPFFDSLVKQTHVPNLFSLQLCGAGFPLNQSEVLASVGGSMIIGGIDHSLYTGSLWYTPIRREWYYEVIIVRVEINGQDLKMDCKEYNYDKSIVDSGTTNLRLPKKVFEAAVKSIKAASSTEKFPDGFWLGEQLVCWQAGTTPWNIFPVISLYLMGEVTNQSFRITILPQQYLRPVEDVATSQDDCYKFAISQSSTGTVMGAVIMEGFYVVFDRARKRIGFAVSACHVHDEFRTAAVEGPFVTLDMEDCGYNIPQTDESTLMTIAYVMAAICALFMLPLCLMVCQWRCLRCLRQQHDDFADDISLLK

Structure (SMILES) | IC50 [1] | IC50 [2] | IC50 [3] | Biochemical FRET based assay pIC50 [1] | Cellular αlisa assay in SKNBE2 cells Aβ42 pIC50 [2] | Cellular αlisa assay in SKNBE2 cells Aβtotal pIC50 [3]
CC1(c2cccc(NC(=O)c3ccc(Cl)cn3)c2)Cn2nccc2C(N)=N1 (racemic) [Compound 2, rac-5-chloro-pyridine-2-carboxylic acid [3-(4-amino-6-methyl-6,7-dihydro-pyrazolo[1,5-a]pyrazin-6-yl)-phenyl]-amide] | 83.2 nM | 3.24 nM | 2.45 nM | – | – | –
CC1(c2cccc(NC(=O)c3ccc(C#N)cn3)c2)Cn2nccc2C(N)=N1 (racemic) [Compound 6, rac-5-cyano-pyridine-2-carboxylic acid [3-(4-amino-6-methyl-6,7-dihydro-pyrazolo[1,5-a]pyrazin-6-yl)-phenyl]-amide] | – | 5.75 nM | 5.13 nM | – | – | –
CC1(c2cccc(NC(=O)c3ccc(C#N)cn3)c2)Cn2ncc(Br)c2C(N)=N1 (racemic) [Compound 9, rac-5-cyano-pyridine-2-carboxylic acid [3-(4-amino-3-bromo-6-methyl-6,7-dihydro-pyrazolo[1,5-a]pyrazin-6-yl)-phenyl]-amide trifluorocetate salt] | 7940 nM | 1000 nM | 871 nM | – | – | –
CC1(c2cc(NC(=O)c3ncc(Cl)cc3Cl)ccc2F)Cn2nccc2C(N)=N1 (racemic) [Compound 14, rac-3,5-dichloro-pyridine-2-carboxylic acid [3-(4-amino-6-methyl-6,7-dihydro-pyrazolo[1,5-a]pyrazin-6-yl)-4-fluoro-phenyl]-amide] | 35.5 nM | 1.35 nM | 1.17 nM | – | – | –
COc1cnc(C(=O)Nc2ccc(F)c(C3(C(F)F)Cn4nccc4C(N)=N3)c2)cn1 (racemic) [Compound 17, rac-5-methoxy-pyrazine-2-carboxylic acid [3-(4-amino-6-difluoromethyl-6,7-dihydro-pyrazolo[1,5-a]pyrazin-6-yl)-4-fluoro-phenyl]-amide] | 57.5 nM | 39.8 nM | 33.1 nM | – | – | –
NC1=NC(c2cc(NC(=O)c3ccc(F)cn3)ccc2F)(C(F)F)Cn2nccc21 (racemic) [Compound 20, rac-5-fluoro-pyridine-2-carboxylic acid [3-(4-amino-6-difluoromethyl-6,7-dihydro-pyrazolo[1,5-a]pyrazin-6-yl)-4-fluoro-phenyl]-amide] | 66.1 nM | 85.1 nM | 66.1 nM | – | – | –
Cc1nn2c(c1F)C(N)=NC(C)(c1cc(NC(=O)c3ccc(F)cn3)ccc1F)C2 (racemic) [Compound 41] | – | – | – | 6.93 | 7.69 | 7.67
CC1(c2cccc(NC(=O)c3ccc(C#N)cn3)c2)Cn2nccc2C(N)=N1 (single isomer, unassigned) [Compound 8, (S*)-5-cyano-pyridine-2-carboxylic acid [3-(4-amino-6-methyl-6,7-dihydro-pyrazolo[1,5-a]pyrazin-6-yl)-phenyl]-amide] | – | – | – | – | 6.13 | 6.13
CC1(c2cc(NC(=O)c3ncc(Cl)cc3Cl)ccc2F)Cn2nccc2C(N)=N1 (single isomer, unassigned) [Compound 15, (R*)-3,5-dichloro-pyridine-2-carboxylic acid [3-(4-amino-6-methyl-6,7-dihydro-pyrazolo[1,5-a]pyrazin-6-yl)-4-fluoro-phenyl]-amide] | 18.6 nM | – | – | – | 9.33 | 9.37
COc1cnc(C(=O)Nc2ccc(F)c(C3(C(F)F)Cn4nccc4C(N)=N3)c2)cn1 (single isomer, unassigned) [Compound 18, (R*)-5-methoxy-pyrazine-2-carboxylic acid [3-(4-amino-6-difluoromethyl-6,7-dihydro-pyrazolo[1,5-a]pyrazin-6-yl)-4-fluoro-phenyl]-amide] | 22.4 nM | – | – | – | 7.52 | 7.54
COc1cnc(C(=O)Nc2ccc(F)c(C3(C(F)F)Cn4nccc4C(N)=N3)c2)cn1 (single isomer, unassigned) [Compound 19, (S*)-5-methoxy-pyrazine-2-carboxylic acid [3-(4-amino-6-difluoromethyl-6,7-dihydro-pyrazolo[1,5-a]pyrazin-6-yl)-4-fluoro-phenyl]-amide] | 9770 nM | – | – | – | 5.28 | 5.13
NC1=NC(c2cc(NC(=O)c3ccc(F)cn3)ccc2F)(C(F)F)Cn2nccc21 (single isomer, unassigned) [Compound 21, (S*)-5-fluoro-pyridine-2-carboxylic acid [3-(4-amino-6-difluoromethyl-6,7-dihydro-pyrazolo[1,5-a]pyrazin-6-yl)-4-fluoro-phenyl]-amide] | > 30200 nM | – | – | – | <5 | <5
C[C@@]1(c2cc(NC(=O)c3cnn(C(F)F)c3)ccc2F)Cn2nc(C#N)cc2C(N)=N1 [Compound 25, (R)-1-difluoromethyl-1H-pyrazole-4-carboxylic acid [3-(4-amino-2-cyano-6-methyl-6,7-dihydro-pyrazolo[1,5-a]pyrazin-6-yl)-4-fluoro-phenyl]-amide] | – | 1.32 nM | 1.35 nM | – | – | –

The next lines start with the values.

IC50 [1] | IC50 [2] | IC50 [3] | Biochemical FRET based assay pIC50 [1] | Cellular αlisa assay in SKNBE2 cells Aβ42 pIC50 [2] | Cellular αlisa assay in SKNBE2 cells Aβtotal pIC50 [3] | Structure (SMILES)
46.8 nM | 3.24 nM | 3.39 nM | – | – | – | CC1(c2cccc(NC(=O)c3ncc(Cl)cc3Cl)c2)Cn2nccc2C(N)=N1 (racemic) [Compound 3, rac-3,5-dichloro-pyridine-2-carboxylic acid [3-(4-amino-6-methyl-6,7-dihydro-pyrazolo[1,5-a]pyrazin-6-yl)-phenyl]-amide]
63.1 nM | 16.6 nM | 15.5 nM | – | – | – | CC1(c2cccc(NC(=O)c3ncc(Cl)cc3Cl)c2)Cn2nc(C(F)(F)F)cc2C(N)=N1 (racemic) [Compound 10, rac-3,5-dichloro-pyridine-2-carboxylic acid [3-(4-amino-6-methyl-2-trifluoromethyl-6,7-dihydro-pyrazolo[1,5-a]pyrazin-6-yl)-phenyl]-amide]
– | – | – | 6.77 | 7.43 | 7.45 | COc1cnc(C(=O)Nc2cccc(C3(C)Cn4nc(C(F)(F)F)cc4C(N)=N3)c2)cn1 (racemic) [Compound 30]
21400 nM | – | – | – | 5.84 | 5.84 | CC1(c2cccc(NC(=O)c3ncc(Cl)cc3Cl)c2)Cn2nccc2C(N)=N1 (single isomer, unassigned) [Compound 4, (R*)-3,5-dichloro-pyridine-2-carboxylic acid [3-(4-amino-6-methyl-6,7-dihydro-pyrazolo[1,5-a]pyrazin-6-yl)-phenyl]-amide]
37.2 nM | – | – | – | 8.59 | 8.55 | CC1(c2cccc(NC(=O)c3ncc(Cl)cc3Cl)c2)Cn2nccc2C(N)=N1 (single isomer, unassigned) [Compound 5, (S*)-3,5-dichloro-pyridine-2-carboxylic acid [3-(4-amino-6-methyl-6,7-dihydro-pyrazolo[1,5-a]pyrazin-6-yl)-phenyl]-amide]
8710 nM | – | – | – | 5.64 | 5.75 | CC1(c2cccc(NC(=O)c3ncc(Cl)cc3Cl)c2)Cn2nc(C(F)(F)F)cc2C(N)=N1 (single isomer, unassigned) [Compound 12, (S*)-3,5-dichloro-pyridine-2-carboxylic acid [3-(4-amino-6-methyl-2-trifluoromethyl-6,7-dihydro-pyrazolo[1,5-a]pyrazin-6-yl)-phenyl]-amide]
1050 nM | – | – | – | 7.66 | 7.74 | CC1(c2cc(NC(=O)c3ncc(Cl)cc3Cl)ccc2F)Cn2nccc2C(N)=N1 (single isomer, unassigned) [Compound 16, (S*)-3,5-dichloro-pyridine-2-carboxylic acid [3-(4-amino-6-methyl-6,7-dihydro-pyrazolo[1,5-a]pyrazin-6-yl)-4-fluoro-phenyl]-amide]
